Where two headings read alike, the source gives them in different places.
Columns and labels:
CD-1 mice [1] = experiment: d-Amphetamine-induced hyperlocomotor activity
[2] = biological target: T1, serotonin 5-HT1A receptors (Rattus norvegicus, UniProt P19327); experiment: Radioligand binding assay, 5-HT1A receptors
T1 construct: from tissue; host or cells: rat brain tissues
T1 sequence (P19327 1-422): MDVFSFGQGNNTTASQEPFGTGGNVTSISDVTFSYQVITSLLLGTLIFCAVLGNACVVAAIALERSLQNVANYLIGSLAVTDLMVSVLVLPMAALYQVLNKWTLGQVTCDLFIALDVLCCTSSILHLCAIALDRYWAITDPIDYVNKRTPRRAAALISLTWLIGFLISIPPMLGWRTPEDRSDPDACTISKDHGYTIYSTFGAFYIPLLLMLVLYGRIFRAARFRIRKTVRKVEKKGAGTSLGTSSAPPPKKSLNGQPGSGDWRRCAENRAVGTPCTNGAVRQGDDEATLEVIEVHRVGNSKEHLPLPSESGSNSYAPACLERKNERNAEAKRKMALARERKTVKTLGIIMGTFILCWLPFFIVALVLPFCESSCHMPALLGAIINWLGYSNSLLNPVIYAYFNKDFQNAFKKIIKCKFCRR
Protocol: All compounds were tested for their affinities for 5-HT1A, 5-HT2A, and D2 receptors according to previously described procedures (Stefanowicz et al. [2016]).
Competition binding studies were performed according to a previously described procedure in rat brain tissues (Stefanowicz et al. [2016]).

CD-1 mice [3] = experiment: Spontaneous locomotor activity; assay type: in vivo
Albino Swiss mice [4] = experiment: Four-plate test
dopamine D2 receptors [5] = biological target: T2, dopamine D2 receptors (Rattus norvegicus, UniProt P61169); experiment: Radioligand binding assay, D2 receptors
T2 sequence (P61169 1-415 isoform P61169-2): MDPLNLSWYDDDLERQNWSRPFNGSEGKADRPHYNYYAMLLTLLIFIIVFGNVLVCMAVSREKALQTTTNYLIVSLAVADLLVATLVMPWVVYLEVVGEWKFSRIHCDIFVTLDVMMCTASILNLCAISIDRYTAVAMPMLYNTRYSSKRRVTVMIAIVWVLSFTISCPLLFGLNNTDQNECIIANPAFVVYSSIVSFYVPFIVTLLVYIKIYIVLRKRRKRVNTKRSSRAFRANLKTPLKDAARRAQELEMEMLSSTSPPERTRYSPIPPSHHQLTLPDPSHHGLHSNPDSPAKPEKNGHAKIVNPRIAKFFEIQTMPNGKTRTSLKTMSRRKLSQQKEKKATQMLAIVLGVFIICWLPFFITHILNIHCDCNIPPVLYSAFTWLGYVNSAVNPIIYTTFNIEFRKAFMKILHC

[6] = biological target: T3, serotonin 5-HT2A receptors (Rattus norvegicus, UniProt P14842); experiment: Radioligand binding assay, 5-HT2A receptors
T3 construct: from tissue; host or cells: rat brain tissues
T3 sequence (P14842 whole entry): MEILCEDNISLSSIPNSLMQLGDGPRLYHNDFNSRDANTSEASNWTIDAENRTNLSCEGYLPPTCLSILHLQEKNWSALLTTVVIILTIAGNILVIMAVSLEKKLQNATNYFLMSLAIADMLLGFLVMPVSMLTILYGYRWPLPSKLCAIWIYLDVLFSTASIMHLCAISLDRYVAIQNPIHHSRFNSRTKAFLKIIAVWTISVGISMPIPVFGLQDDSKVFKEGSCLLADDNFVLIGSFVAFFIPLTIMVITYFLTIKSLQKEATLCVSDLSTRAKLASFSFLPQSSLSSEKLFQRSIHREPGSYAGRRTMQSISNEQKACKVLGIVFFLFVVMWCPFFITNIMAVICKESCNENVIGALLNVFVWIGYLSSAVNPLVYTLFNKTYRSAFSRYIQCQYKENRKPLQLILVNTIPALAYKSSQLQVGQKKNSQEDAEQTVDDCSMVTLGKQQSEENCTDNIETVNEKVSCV

Albino Swiss mice [7] = experiment: Forced swim test; settings: for Immobility time (s) Mean ± SEM: last 4 min of session
CD-1 mice [8] = experiment: MK-801-induced hyperlocomotor activity
[9] = biological target: T3, serotonin 5-HT2A receptors; design: method as in Słowiński et al. 2011, 2013; Stefanowicz et al. 2016; settings: earlier lead structures, Fig. 1/Fig. 2; ref Słowiński et al. 2011, 2013; Stefanowicz et al. 2016; cited from earlier work
dopamine D2 receptors [10] = biological target: T2, dopamine D2 receptors; design: method as in Słowiński et al. 2011, 2013; Stefanowicz et al. 2016; settings: earlier lead structures, Fig. 1/Fig. 2; ref Słowiński et al. 2011, 2013; Stefanowicz et al. 2016; cited from earlier work
[11] = biological target: T1, serotonin 5-HT1A receptors; settings: earlier lead structures, Fig. 1/Fig. 2; ref Słowiński et al. 2011, 2013; Stefanowicz et al. 2016; cited from earlier work
[12] = 2.5 mg/kg i.p. 30 min before test
[13] = 5 mg/kg i.p. 30 min before test
[14] = 10 mg/kg i.p. 30 min before test

SMILES: Nc1ccccc1CN1C2CCC1CC(NC(=O)c1ccc3ccccc3c1)C2 (stereo not shown) [Compound 19a]
- Number of crossings/60 min Mean ± SEM (CD-1 mice [1]; compound 5 mg/kg i.p. + d-amphetamine 2.5 mg/kg s.c.): 4328.6 ± 1146.8 crossings/60 min
- Number of crossings/60 min Mean ± SEM (CD-1 mice [1]; compound 10 mg/kg i.p. + d-amphetamine 2.5 mg/kg s.c.): 950.0 ± 411.7; p < 0.01 vs. amph.; ns vs. contr F(3,35) = 5.6910; p < 0.01 crossings/60 min
- activity in d-amphetamine-induced hyperlocomotor activity test (CD-1 mice [1]; i.p.): active in this test only at a dose of 10 mg/kg i.p.
- Ki [2]: 53 ± 2 nM
- IC50 ([2]; rat brain tissues, read-out: 5-HT1A IC50 [nM] ± SEM): 159 ± 5.5 nM
- Number of crossings/60 min Mean ± SEM (CD-1 mice [3]; [12]): 1634.4 ± 511.9 F(2,27) = 0.7417; NS crossings/60 min
- Number of crossings/60 min Mean ± SEM (CD-1 mice [3]; [13]): 1480.4 ± 302.3 crossings/60 min
- decrease of spontaneous locomotor activity (CD-1 mice [3]; 10 mg/kg): about 70%
- Number of crossings/60 min Mean ± SEM (CD-1 mice [3]; [14]): 491.6 ± 126.5 F(2,26) = 5.3557; p < 0.05 crossings/60 min
- Number of punished crossings /1 min Mean ± SEM (Albino Swiss mice [4]; [12]): 3.2 ± 0.5 crossings/1 min
- Number of punished crossings /1 min Mean ± SEM (Albino Swiss mice [4]; [13]): 1.1 ± 0.2 crossings/1 min
- Number of punished crossings /1 min Mean ± SEM (Albino Swiss mice [4]; [14]): 3.2 ± 0.5 F(3,33) = 5.6670; p < 0.01 crossings/1 min
- Ki (dopamine D2 receptors [5]): 41.5 ± 1.5 nM
- IC50 (dopamine D2 receptors [5]; rat brain tissues, read-out: D2 IC50 [nM] ± SEM): 209 ± 5.5 nM
- Ki [6]: 46.8 ± 5.5 nM
- IC50 ([6]; rat brain tissues, read-out: 5-HT2A IC50 [nM] ± SEM): 173 ± 19.3 nM
- Immobility time (s) Mean ± SEM (Albino Swiss mice [7]; 1.25 mg/kg i.p. 30 min before test): 120.00 ± 16.6 s
- Immobility time (s) Mean ± SEM (Albino Swiss mice [7]; [12]): 128.89 ± 12.3 s
- decrease of immobility time vs. respective control group (Albino Swiss mice [7]; 5 mg/kg i.p.): about 43%
- Immobility time (s) Mean ± SEM (Albino Swiss mice [7]; [13]): 96.56 ± 16.2; p < 0,01 F(3,31) = 4.5279; p < 0.01 s
- melting point: 172.7 to 173.3 °C
- effect on MK-801-induced hyperlocomotor activity (CD-1 mice [8]; 5 mg/kg and 10 mg/kg i.p.): significantly reduced
- Number of crossings/60 min Mean ± SEM (CD-1 mice [8]; compound 1.25 mg/kg i.p. 30 min + MK-801 0.2 mg/kg): 4646.4 ± 675.6; ns, ns crossings/60 min
- Number of crossings/60 min Mean ± SEM (CD-1 mice [8]; compound 2.5 mg/kg i.p. 30 min + MK-801 0.2 mg/kg): 3832.0 ± 991.3; ns, ns F(3,33) = 5.2088; p < 0.01 crossings/60 min
- Number of crossings/60 min Mean ± SEM (CD-1 mice [8]; compound 5 mg/kg i.p. 30 min + MK-801 0.2 mg/kg): 2915.4 ± 580.2; p < 0.001 vs. MK; ns vs. contr F(2,27) = 16.679; p < 0.0001 crossings/60 min
- Number of crossings/60 min Mean ± SEM (CD-1 mice [8]; compound 10 mg/kg i.p. 30 min + MK-801 0.2 mg/kg): 808.7 ± 66.3; p < 0.0001 vs. Mk; p < 0.05 vs. contr F(2,20) = 23.813; p < 0.001 crossings/60 min

SMILES: O=C(NC1CC2CCC(C1)N2Cc1cccc(Br)c1)c1ccc2ccccc2c1 (stereo not shown) [R = -Br]
- Ki [9]: 106 nM

SMILES: Cc1cccc(CN2C3CCC2CC(NC(=O)c2ccc4ccccc4c2)C3)c1 (stereo not shown) [R = -CH3]
- Ki [9]: 231 nM

SMILES: O=C(NC1CC2CCC(C1)N2Cc1ccccc1)c1ccc2ccccc2c1 (stereo not shown) [compound A]
- Ki (dopamine D2 receptors [10]): 82.4 nM
- Ki [9]: 2.5 nM
- Ki [11]: 304 nM
